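Test compounds were applied to cells in 96-well plates for 48 hours at 5 doses. GI50 is the concentration that inhibits growth by half.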 Calls of active or inactive are those of the source. Cut-off read from the data, not from the text of the source: active = GI50 up to about 1.1 µM and inactive = higher.
Tests used:
Assay in all cases: NCI-60 cell line screen, 48 h
[1] = system: BT-549
[2] = system: CAKI-1
[3] = system: HT-29
[4] = system: MDA-MB-435
[5] = system: RXF 393
[6] = system: Malme-3M
[7] = system: OVCAR-8
[8] = system: Hs-578T
[9] = system: UO-31
[10] = system: SF-268
[11] = system: 786-0
[12] = system: MDA-N
[13] = system: MCF7
[14] = system: TK-10
[15] = system: SN12C
[16] = system: OVCAR-5
[17] = system: SNB-19
[18] = system: COLO 205
[19] = system: SR
[20] = system: ACHN
[21] = system: SNB-75
[22] = system: NCI-H460
[23] = system: HCT-15
[24] = system: EKVX
[25] = system: RPMI-8226
[26] = system: HOP-62
[27] = system: UACC-62
[28] = system: K562
[29] = system: A498
[30] = system: NCI-H226
[31] = system: LOX IMVI
[32] = system: NCI-H23
[33] = system: MOLT-4
[34] = system: SK-MEL-28
[35] = system: HCT-116
[36] = system: MDA-MB-231
[37] = system: SK-OV-3
[38] = system: HOP-92
[39] = system: T47D
[40] = system: DU-145
[41] = system: IGROV-1
[42] = system: HL-60
[43] = system: OVCAR-4
[44] = system: OVCAR-3
[45] = system: SK-MEL-2
[46] = system: CCRF-CEM
[47] = system: UACC-257
[48] = system: PC-3
[49] = system: NCI-H522
[50] = system: NCI/ADR-RES
[51] = system: M14
[52] = system: KM12
[53] = system: SW-620
[54] = system: U-251
[55] = system: SF-295
[56] = system: SK-MEL-5
[57] = system: A549
[58] = system: SF-539

`NCC(O)CSP(=O)(O)O` (stereo not given) was tested, and the GI50 [1] was > 100 µM (inactive), the GI50 [2] was > 100 µM (inactive) and the GI50 [3] was > 100 µM (inactive). For the same compound, the GI50 [4] was > 100 µM (inactive), the GI50 [5] was > 100 µM (inactive) and the GI50 [6] was > 100 µM (inactive). For the same compound, the GI50 [7] was > 100 µM (inactive), the GI50 [8] was > 100 µM (inactive) and the GI50 [9] was > 100 µM (inactive). The GI50 [10] was > 100 µM (inactive), the GI50 [11] was > 100 µM (inactive) and the GI50 [12] was > 100 µM (inactive). The GI50 [13] was > 100 µM (inactive), the GI50 [14] was > 100 µM (inactive) and the GI50 [15] was > 100 µM (inactive). For the same compound, the GI50 [16] was > 100 µM (inactive), the GI50 [17] was > 100 µM (inactive) and the GI50 [18] was > 100 µM (inactive). For the same compound, the GI50 [19] was > 100 µM (inactive), the GI50 [20] was > 100 µM (inactive) and the GI50 [21] was > 100 µM (inactive). The GI50 [22] was > 100 µM (inactive), the GI50 [23] was over 100 µM and the GI50 [24] was > 100 µM (inactive). The GI50 [25] was > 100 µM (inactive), the GI50 [26] was > 100 µM (inactive) and the GI50 [27] was > 100 µM (inactive). For the same compound, the GI50 [28] was > 100 µM (inactive), the GI50 [29] was > 100 µM (inactive) and the GI50 [30] was > 100 µM (inactive). For the same compound, the GI50 [31] was > 100 µM (inactive), the GI50 [32] was > 100 µM (inactive) and the GI50 [33] was > 100 µM (inactive). The GI50 [34] was > 100 µM (inactive), the GI50 [35] was > 100 µM (inactive) and the GI50 [36] was > 100 µM (inactive). For the same compound, the GI50 [37] was > 100 µM (inactive), the GI50 [38] was > 100 µM (inactive) and the GI50 [39] was > 100 µM (inactive). For the same compound, the GI50 [40] was > 100 µM (inactive), the GI50 [41] was > 100 µM (inactive) and the GI50 [42] was > 100 µM (inactive). For the same compound, the GI50 [43] was > 100 µM (inactive), the GI50 [44] was > 100 µM (inactive) and the GI50 [45] was > 100 µM (inactive). For the same compound, the GI50 [46] was > 100 µM (inactive), the GI50 [47] was > 100 µM (inactive) and the GI50 [48] was > 100 µM (inactive). For the same compound, the GI50 [49] was > 100 µM (inactive), the GI50 [50] was > 100 µM (inactive) and the GI50 [51] was > 100 µM (inactive). The GI50 [52] was > 100 µM (inactive), the GI50 [53] was > 100 µM (inactive) and the GI50 [54] was > 100 µM (inactive). For the same compound, the GI50 [55] was > 100 µM (inactive), the GI50 [56] was > 100 µM (inactive) and the GI50 [57] was > 100 µM (inactive).
In the case of `Nc1ncnc2c1ncn2[C@@H]1O[C@H](C(=O)O)[C@@H](O)[C@H]1O` [5'-CARBOXY ADENOSINE], the GI50 [1] is reported as > 100 µM (inactive), the GI50 [2] is reported as > 100 µM (inactive) and the GI50 [3] is reported as > 100 µM (inactive). For the same compound, the GI50 [4] was > 100 µM (inactive), the GI50 [5] was > 100 µM (inactive) and the GI50 [6] was > 100 µM (inactive). The GI50 [7] was > 100 µM (inactive), the GI50 [8] was > 100 µM (inactive) and the GI50 [9] was > 100 µM (inactive). The GI50 [10] was > 100 µM (inactive), the GI50 [11] was > 100 µM (inactive) and the GI50 [58] was > 100 µM (inactive). The GI50 [12] was > 100 µM (inactive), the GI50 [13] was > 100 µM (inactive) and the GI50 [14] was > 100 µM (inactive). For the same compound, the GI50 [15] was > 100 µM (inactive), the GI50 [16] was > 100 µM (inactive) and the GI50 [17] was > 100 µM (inactive). For the same compound, the GI50 [18] was > 100 µM (inactive), the GI50 [19] was > 100 µM (inactive) and the GI50 [20] was > 100 µM (inactive). The GI50 [21] was > 100 µM (inactive), the GI50 [22] was > 100 µM (inactive) and the GI50 [23] was over 100 µM. The GI50 [24] was > 100 µM (inactive), the GI50 [25] was > 100 µM (inactive) and the GI50 [26] was > 100 µM (inactive). For the same compound, the GI50 [27] was > 100 µM (inactive), the GI50 [28] was > 100 µM (inactive) and the GI50 [29] was > 100 µM (inactive). The GI50 [30] was > 100 µM (inactive), the GI50 [31] was > 100 µM (inactive) and the GI50 [32] was > 100 µM (inactive). For the same compound, the GI50 [33] was > 100 µM (inactive), the GI50 [34] was > 100 µM (inactive) and the GI50 [35] was > 100 µM (inactive). The GI50 [36] was > 100 µM (inactive), the GI50 [37] was > 100 µM (inactive) and the GI50 [38] was > 100 µM (inactive). For the same compound, the GI50 [39] was > 100 µM (inactive), the GI50 [40] was > 100 µM (inactive) and the GI50 [41] was > 100 µM (inactive). The GI50 [42] was > 100 µM (inactive), the GI50 [43] was > 100 µM (inactive) and the GI50 [44] was > 100 µM (inactive). For the same compound, the GI50 [45] was > 100 µM (inactive), the GI50 [46] was > 100 µM (inactive) and the GI50 [47] was > 100 µM (inactive). For the same compound, the GI50 [48] was > 100 µM (inactive), the GI50 [49] was > 100 µM (inactive) and the GI50 [50] was > 100 µM (inactive). For the same compound, the GI50 [51] was > 100 µM (inactive), the GI50 [52] was > 100 µM (inactive) and the GI50 [53] was > 100 µM (inactive). The GI50 [54] was > 100 µM (inactive), the GI50 [55] was > 100 µM (inactive) and the GI50 [56] was > 100 µM (inactive). For the same compound, the GI50 [57] was > 100 µM (inactive).

Reference: ChEMBL document CHEMBL1201862, “PubChem BioAssay data set” (2004)
